# Experimental data from patent publication US9125913B2, “Bcl-2-selective apoptosis-inducing agents for the treatment of cancer and immune diseases” (AbbVie Inc., priority 2008, dated 2015).
# Test system: GST-Bcl-2
# Assay: TR-FRET binding assay, Bcl-2
# Conditions: TR-FRET Ki values
# Procedure, shortened: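 Ki values come from Wang's competitive-binding equation applied to TR-FRET signal (excitation 340/35 nm; emission 520/525 nm F-Bak peptide, 495/510 nm Tb antibody). Protein, probe and antibody incubated with compound 3 h at room temperature; dilution series began at 50 μM as 2× stock in 10% DMSO.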
row,Structure (SMILES),Binding selectivity ratio (Bcl-XL Ki/Bcl-2 Ki)
1,"CC1(C)CCC(CN2CCN(c3ccc(C(=O)NS(=O)(=O)c4cnc(OCC5(F)CCOCC5)c(F)c4)c(Oc4cccc5[nH]cnc45)c3)CC2)=C(c2ccc(Cl)cc2)C1 [EXAMPLE 442, 2-(1H-benzimidazol-4-yloxy)-4-(4-{[2-(4-chlorophenyl)-4,4-dimethylcyclohex-1-en-1-yl]methyl}piperazin-1-yl)-N-({5-fluoro-6-[(4-fluorotetrahydro-2H-pyran-4-yl)methoxy]pyridin-3-yl}sulfonyl)benzamide]",3358.9
2,"CC(c1ccccc1-c1ccc(Cl)cc1)N1CCN(c2ccc(C(=O)NS(=O)(=O)c3ccc(NCCCN4CCOCC4)c([N+](=O)[O-])c3)c(Oc3cccc4[nH]ccc34)c2)CC1 (stereo not shown) [EXAMPLE 247, 4-{4-[1-(4′-chloro-1,1′-biphenyl-2-yl)ethyl]piperazin-1-yl}-2-(1H-indol-4-yloxy)-N-({4-[(3-morpholin-4-ylpropyl)amino]-3-nitrophenyl}sulfonyl)benzamide]",145.3
3,"CC1(C)CCC(CN2CCN(c3ccc(C(=O)NS(=O)(=O)c4ccc(NN5CCCCC5)c([N+](=O)[O-])c4)c(Oc4ccc5[nH]ccc5c4)c3)CC2)=C(c2ccc(Cl)cc2)C1 [EXAMPLE 284, 4-(4-{[2-(4-chlorophenyl)-4,4-dimethylcyclohex-1-en-1-yl]methyl}piperazin-1-yl)-2-(1H-indol-5-yloxy)-N-{[3-nitro-4-(piperidin-1-ylamino)phenyl]sulfonyl}benzamide]",>425.2
4,"CC1(C)CCC(CN2CCN(c3ccc(C(=O)NS(=O)(=O)c4ccc(NCC5(CO)CCOCC5)c([N+](=O)[O-])c4)c(Oc4ccc5[nH]ccc5c4)c3)CC2)=C(c2ccc(Cl)cc2)C1 [EXAMPLE 232, 4-(4-{[2-(4-chlorophenyl)-4,4-dimethylcyclohex-1-en-1-yl]methyl}piperazin-1-yl)-N-{[4-({[4-(hydroxymethyl)tetrahydro-2H-pyran-4-yl]methyl}amino)-3-nitrophenyl]sulfonyl}-2-(1H-indol-5-yloxy)benzamide]",429.1
5,"COCCNc1ccc(S(=O)(=O)NC(=O)c2ccc(N3CCN(CC4=C(c5ccc(Cl)cc5)CC(C)(C)CC4)CC3)cc2Oc2cccc3[nH]ccc23)cc1S(=O)(=O)C(F)(F)F [EXAMPLE 309, 4-(4-{[2-(4-chlorophenyl)-4,4-dimethylcyclohex-1-en-1-yl]methyl}piperazin-1-yl)-2-(1H-indol-4-yloxy)-N-({4-[(2-methoxyethyl)amino]-3-[(trifluoromethyl)sulfonyl]phenyl}sulfonyl)benzamide]",>149.4
6,"O=C(NS(=O)(=O)c1ccc(NCCCN2CCCC2)c([N+](=O)[O-])c1)c1ccc(N2CCN(Cc3ccccc3-c3ccc(Cl)cc3)CC2)cc1Oc1ccccc1 [Example 91, 4-{4-[(4′-chloro-1,1′-biphenyl-2-yl)methyl]piperazin-1-yl}-N-({3-nitro-4-[(3-pyrrolidin-1-ylpropyl)amino]phenyl}sulfonyl)-2-phenoxybenzamide]",52.8
7,"CN1CCC(Nc2ccc(S(=O)(=O)NC(=O)c3ccc(N4CCN(CC5=C(c6ccc(Cl)cc6)CC(C)(C)CC5)C(CO)C4)cc3Oc3ccc4[nH]ccc4c3)cc2[N+](=O)[O-])CC1 (stereo not shown) [EXAMPLE 218, 4-[4-{[2-(4-chlorophenyl)-4,4-dimethylcyclohex-1-en-1-yl]methyl}-3-(hydroxymethyl)piperazin-1-yl]-2-(1H-indol-5-yloxy)-N-({4-[(1-methylpiperidin-4-yl)amino]-3-nitrophenyl}sulfonyl)benzamide]",738.2
8,"O=C(NS(=O)(=O)c1ccc(NCC2CCOCC2)c([N+](=O)[O-])c1)c1ccc(N2CCN(CC3=C(c4ccc(Cl)cc4)CCN(CCCO)C3)CC2)cc1Oc1cccc2[nH]ccc12 [EXAMPLE 355, 4-(4-{[4-(4-chlorophenyl)-1-(3-hydroxypropyl)-1,2,5,6-tetrahydropyridin-3-yl]methyl}piperazin-1-yl)-2-(1H-indol-4-yloxy)-N-({3-nitro-4-[(tetrahydro-2H-pyran-4-ylmethyl)amino]phenyl}sulfonyl)benzamide]",>5489.5
9,"CN1CCN(CCNc2ccc(S(=O)(=O)NC(=O)c3ccc(N4CCN(Cc5ccccc5-c5ccc(Cl)cc5)CC4)cc3Oc3ccccc3)cc2[N+](=O)[O-])CC1 [Example 85, 4-{4-[(4′-chloro-1,1′-biphenyl-2-yl)methyl]piperazin-1-yl}-N-[(4-{[2-(4-methylpiperazin-1-yl)ethyl]amino}-3-nitrophenyl)sulfonyl]-2-phenoxybenzamide]",48.8
10,"CC1(C)CCC(CN2CCN(c3ccc(C(=O)NS(=O)(=O)c4cnc(OCC5CCOCC5)c(Cl)c4)c(Oc4cccc5[nH]ncc45)c3)CC2)=C(c2ccc(Cl)cc2)C1 [EXAMPLE 427, 4-(4-{[2-(4-chlorophenyl)-4,4-dimethylcyclohex-1-en-1-yl]methyl}piperazin-1-yl)-N-{[5-chloro-6-(tetrahydro-2H-pyran-4-ylmethoxy)pyridin-3-yl]sulfonyl}-2-(1H-indazol-4-yloxy)benzamide]",34408.55031
11,"CC1(C)CCC(CN2CCN(c3ccc(C(=O)NS(=O)(=O)c4ccc(NCCN5CCNC(=O)C5)c([N+](=O)[O-])c4)c(Oc4cccc5[nH]ccc45)c3)CC2)=C(c2ccc(Cl)cc2)C1 [EXAMPLE 280, 4-(4-{[2-(4-chlorophenyl)-4,4-dimethylcyclohex-1-en-1-yl]methyl}piperazin-1-yl)-2-(1H-indol-4-yloxy)-N-[(3-nitro-4-{[2-(3-oxopiperazin-1-yl)ethyl]amino}phenyl)sulfonyl]benzamide]",1097.2
12,"CN1CCC(COc2ccc(S(=O)(=O)NC(=O)c3ccc(N4CCN(CC5=C(c6ccc(Cl)cc6)CC(C)(C)CC5)CC4)cc3Oc3ccc4[nH]ccc4c3)cc2[N+](=O)[O-])CC1 [EXAMPLE 354, 4-(4-{[2-(4-chlorophenyl)-4,4-dimethylcyclohex-1-en-1-yl]methyl}piperazin-1-yl)-2-(1H-indol-5-yloxy)-N-({4-[(1-methylpiperidin-4-yl)methoxy]-3-nitrophenyl}sulfonyl)benzamide]",148.8
13,"CC1(C)CCC(CN2CCN(c3ccc(C(=O)NS(=O)(=O)c4ccc(NC5CCN(C6Cc7ccccc7C6)CC5)c([N+](=O)[O-])c4)c(Oc4cccc5[nH]ccc45)c3)CC2)=C(c2ccc(Cl)cc2)C1 [EXAMPLE 227, 4-(4-{[2-(4-chlorophenyl)-4,4-dimethylcyclohex-1-en-1-yl]methyl}piperazin-1-yl)-N-[(4-{[1-(2,3-dihydro-1H-inden-2-yl)piperidin-4-yl]amino}-3-nitrophenyl)sulfonyl]-2-(1H-indol-4-yloxy)benzamide]",>96.6
14,"CC1(C)CCC(CN2CCN(c3ccc(C(=O)NS(=O)(=O)c4ccc(NCCCn5ccnc5)c([N+](=O)[O-])c4)c(Oc4ccc5[nH]ccc5c4)c3)CC2)=C(c2ccc(Cl)cc2)C1 [EXAMPLE 377, 4-(4-{[2-(4-chlorophenyl)-4,4-dimethylcyclohex-1-en-1-yl]methyl}piperazin-1-yl)-N-[(4-{[3-(1H-imidazol-1-yl)propyl]amino}-3-nitrophenyl)sulfonyl]-2-(1H-indol-5-yloxy)benzamide]",2317.4
15,"CC1(C)CCC(CN2CCN(c3ccc(C(=O)NS(=O)(=O)c4ccc(NN5CCS(=O)(=O)CC5)c([N+](=O)[O-])c4)c(Oc4ccc5[nH]ccc5c4)c3)CC2)=C(c2ccc(Cl)cc2)C1 [EXAMPLE 362, 4-(4-{[2-(4-chlorophenyl)-4,4-dimethylcyclohex-1-en-1-yl]methyl}piperazin-1-yl)-N-({4-[(1,1-dioxidothiomorpholin-4-yl)amino]-3-nitrophenyl}sulfonyl)-2-(1H-indol-5-yloxy)benzamide]",3548.2
16,"CC1(C)CCC(CN2CCN(c3ccc(C(=O)NS(=O)(=O)c4ccc(NCC5CN(S(C)(=O)=O)CCO5)c([N+](=O)[O-])c4)c(Oc4cccc5[nH]cnc45)c3)CC2)=C(c2ccc(Cl)cc2)C1 (stereo not shown) [EXAMPLE 458, 2-(1H-benzimidazol-4-yloxy)-4-(4-{[2-(4-chlorophenyl)-4,4-dimethylcyclohex-1-en-1-yl]methyl}piperazin-1-yl)-N-{[4-({[4-(methylsulfonyl)morpholin-2-yl]methyl}amino)-3-nitrophenyl]sulfonyl}benzamide]",237.24
17,"CN1CCN(Nc2ccc(S(=O)(=O)NC(=O)c3ccc(N4CCN(CC5=C(c6ccc(Cl)cc6)CC(C)(C)CC5)CC4)cc3Oc3cccc4[nH]ccc34)cc2S(=O)(=O)C(F)(F)F)CC1 [EXAMPLE 215, 4-(4-{[2-(4-chlorophenyl)-4,4-dimethylcyclohex-1-en-1-yl]methyl}piperazin-1-yl)-2-(1H-indol-4-yloxy)-N-({4-[(4-methylpiperazin-1-yl)amino]-3-[(trifluoromethyl)sulfonyl]phenyl}sulfonyl)benzamide]",120.8
18,"CN1CCC(O)(CCNc2ccc(S(=O)(=O)NC(=O)c3ccc(N4CCN(CC5=C(c6ccc(Cl)cc6)CC(C)(C)CC5)CC4)cc3Oc3ccc4[nH]ccc4c3)cc2[N+](=O)[O-])CC1 [EXAMPLE 211, 4-(4-{[2-(4-chlorophenyl)-4,4-dimethylcyclohex-1-en-1-yl]methyl}piperazin-1-yl)-N-[(4-{[2-(4-hydroxy-1-methylpiperidin-4-yl)ethyl]amino}-3-nitrophenyl)sulfonyl]-2-(1H-indol-5-yloxy)benzamide]",651.1
19,"COc1ccc(S(=O)(=O)NC(=O)c2ccc(N3CCN(Cc4ccccc4-c4ccc(Cl)cc4)CC3)cc2Oc2ccccc2)cc1 [Example 60, 4-{4-[(4′-chloro-1,1′-biphenyl-2-yl)methyl]piperazin-1-yl}-N-[(4-methoxyphenyl)sulfonyl]-2-phenoxybenzamide]",>34.9
